# Measurements taken from patent US5968948A, “Annelated dihydropyridines and the use thereof for preparing pharmaceutical preparations” (Boerhinger Ingelheim GmbH, priority 1993, dated 1999).
# Test system: RBL-2H3-cells
# Assay: Antigen-induced (DNP-BSA) activation of sensitised RBL-2H3 cells, fluorometric calcium measurement
# Format: cell-based
# Conditions: Rattus norvegicus, read-out: inhibition of the antigen-induced cell activation
# Description: Individual RBL-2H3-cells (a tumour cell line related to the mast cells) adhering to glass slides are used.
# The cultivation and attachment of the RBL-2H3-cells are carried out by the method described by HIDE and BEAVEN (1991). In order to sensitise the adhesive RBL-2H3-cells the cells are incubated for 2 hours at ambient temperature with a 1:2000 diluted commercial gammaglobulin E-solution against a dinitrophenol-bovine serum albumin complex (DNP-BSA-antigen). The cells are then washed. By the addition of 0.1 ml of DNP-BSA-solution (10 μg/ml) there is a massive immunological cell activation which is mediated by a cytoplasmic Ca^2+ -overload. The fluorometric calcium measurement in the cytoplasm of individual adhering RBL-2H3-cells is carried out analogously to the method described by KUDO and OGURA (1986) for neuronal cells, which is also explained hereinbefore in this specification.
# The comparison used in these investigations is (10 μM) chromoglycate which brings about an approximately 50% inhibition of the antigen-induced cell activation.
structure (smiles),measurement,value
O=C(O)c1cc(=O)c2c(OCC(O)COc3cccc4oc(C(=O)O)cc(=O)c34)cccc2o1 [chromoglycate],inhibition at 10 µM,~50%
